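Following 48 hours of exposure in 96-well plates, responses at five concentrations were used to interpolate endpoints linearly. TGI denotes the concentration required for complete inhibition of growth.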
Columns and labels:
Assay in all cases: inhibition of tumour cell growth, NCI panel, 48 h
KM12 colon = system: KM12 colon
RPMI-8226 leukemia = system: RPMI-8226 leukemia
NCI-H23 lung = system: NCI-H23 lung
SN12C renal = system: SN12C renal
UO-31 renal = system: UO-31 renal
HS 578T breast = system: HS 578T breast
DU-145 prostate = system: DU-145 prostate
UACC-62 melanoma = system: UACC-62 melanoma
OVCAR-3 ovarian = system: OVCAR-3 ovarian
MDA-MB-435 = system: MDA-MB-435
SK-MEL-5 melanoma = system: SK-MEL-5 melanoma
M14 melanoma = system: M14 melanoma
OVCAR-8 ovarian = system: OVCAR-8 ovarian
BT-549 breast = system: BT-549 breast
NCI-H226 lung = system: NCI-H226 lung
NCI-H522 lung = system: NCI-H522 lung
SK-OV-3 ovarian = system: SK-OV-3 ovarian
PC-3 prostate = system: PC-3 prostate

| SMILES | TGI (KM12 colon) | TGI (RPMI-8226 leukemia) | TGI (NCI-H23 lung) | TGI (SN12C renal) | TGI (UO-31 renal) | TGI (HS 578T breast) | TGI (DU-145 prostate) | TGI (UACC-62 melanoma) | TGI (OVCAR-3 ovarian) | TGI (MDA-MB-435) | TGI (SK-MEL-5 melanoma) | TGI (M14 melanoma) | TGI (OVCAR-8 ovarian) | TGI (BT-549 breast) | TGI (NCI-H226 lung) | TGI (NCI-H522 lung) | TGI (SK-OV-3 ovarian) | TGI (PC-3 prostate) |
| --- | --- | --- | --- | --- | --- | --- | --- | --- | --- | --- | --- | --- | --- | --- | --- | --- | --- | --- |
| CC(=O)OCC1OC(Nn2c(=O)[nH]c3ccccc3c2=O)C(OC(C)=O)C(OC(C)=O)C1OC(C)=O (configuration not stated) | > 100 µM | > 100 µM | > 100 µM | > 100 µM | > 100 µM | > 100 µM | > 100 µM | > 100 µM | > 100 µM | > 100 µM | > 100 µM | > 100 µM | > 100 µM | > 100 µM | > 100 µM | > 100 µM | > 100 µM | > 100 µM |
| CCC(=O)Nc1ccc(NC(C#N)c2cccc(Oc3ccccc3)c2)cc1 (configuration not stated) | > 100 µM | 66.9 µM | > 100 µM | > 100 µM | > 100 µM | > 100 µM | > 100 µM | > 100 µM | > 100 µM | > 100 µM | 48.1 µM | > 100 µM | 73.4 µM | > 100 µM | 89.3 µM | > 100 µM | > 100 µM | > 100 µM |
| NC(=O)Cc1nc2c(N)ncnc2n1C1OC(CO)C(O)C1O (configuration not stated) | > 100 µM | > 100 µM | > 100 µM | > 100 µM | > 100 µM | > 100 µM | > 100 µM | > 100 µM | > 100 µM | > 100 µM | > 100 µM | > 100 µM | > 100 µM | > 100 µM | > 100 µM | > 100 µM | > 100 µM | > 100 µM |
| CC1(C)OC(=O)N(c2ccccc2)C12C=Cc1cccc([N+](=O)[O-])c1O2 (configuration not stated) | > 100 µM | > 100 µM | > 100 µM | > 100 µM | > 100 µM | > 100 µM | > 100 µM | > 100 µM | > 100 µM | > 100 µM | > 100 µM | > 100 µM | > 100 µM | > 100 µM | > 100 µM | > 100 µM | 76.2 µM | > 100 µM |
| Cc1ccc(O)c(C2=CC(c3cccc(Cl)c3)SC(N)=N2)c1 (configuration not stated) | 89.6 µM | 42.6 µM | 80.1 µM | 34.7 µM | 69.1 µM | 47.9 µM | > 100 µM | 28.8 µM | 90.1 µM | 37.1 µM | 30.1 µM | 68.3 µM | > 100 µM | 85 µM | 38.9 µM | 34 µM | 80 µM | 73.6 µM |
| CN(C)CCn1c(=O)c2ccc(NCCN3CCNCC3)c3c(=O)c4ccccc4n(c1=O)c23 | 16.4 µM | 2.93 µM | 16.8 µM | 14.6 µM | 17.9 µM | 25.9 µM | 17.7 µM | 15.8 µM | 25.1 µM | 9.01 µM | 12.7 µM | 29 µM | 31.4 µM | 22.9 µM | 15.2 µM | 10 µM | 24.6 µM | 16.2 µM |
| Cc1ccc(S(=O)(=O)Oc2nc3ccccc3nc2OS(=O)(=O)c2ccc(C)cc2)cc1 | > 100 µM | > 100 µM | > 100 µM | > 100 µM | > 100 µM | > 100 µM | > 100 µM | > 100 µM | > 100 µM | > 100 µM | 56.1 µM | > 100 µM | > 100 µM | > 100 µM | > 100 µM | 49.9 µM | > 100 µM | > 100 µM |
| COc1cc(NCCC2CCCCN2)c2ncccc2c1 (configuration not stated) | > 100 µM | > 68.1 µM | > 100 µM | > 77.2 µM | > 100 µM | > 100 µM | > 100 µM | > 59.9 µM | > 62.7 µM | > 67.2 µM | > 55.4 µM | 44.9 µM | > 100 µM | > 100 µM | 97.9 µM | > 100 µM | > 100 µM | > 100 µM |
| CS(=O)(=O)c1ccc(N=C/C=C/Nc2ccc(S(C)(=O)=O)cc2)cc1 | > 100 µM | > 100 µM | > 100 µM | > 100 µM | > 100 µM | > 100 µM | > 100 µM | > 100 µM | > 100 µM | > 100 µM | > 100 µM | > 100 µM | > 100 µM | > 100 µM | > 100 µM | > 100 µM | > 100 µM | > 100 µM |
| COC(=O)c1cc(C(=CCC[C@H]2CC[C@@]3(C)C(CCC4C3CC[C@@]3(C)C4CC[C@@H]3C(C)CCCC(C)C)C2)c2cc(Cl)c(O)c(C(=O)OC)c2)cc(Cl)c1O (some centres not stated) | > 10 µM | > 10 µM | > 10 µM | > 10 µM | > 10 µM | > 10 µM | > 10 µM | > 10 µM | > 10 µM | > 10 µM | > 10 µM | > 10 µM | > 10 µM | > 10 µM | > 10 µM | > 10 µM | > 10 µM | > 10 µM |
| COc1ccc(CCCNC(=O)c2cc(OC)c(OC)cc2CCO)cc1OC | > 100 µM | > 100 µM | > 100 µM | > 100 µM | > 100 µM | > 100 µM | > 100 µM | > 100 µM | > 100 µM | > 100 µM | > 100 µM | > 100 µM | > 100 µM | > 100 µM | > 100 µM | > 100 µM | > 100 µM | > 100 µM |
| CC(C)=CC(Cc1ccccc1)S(=O)(=O)c1nc2ccccc2s1 (configuration not stated) | 35.8 µM | 35 µM | 48.8 µM | 31.8 µM | 27.5 µM | > 80 µM | 31.5 µM | 46.5 µM | 29.2 µM | 32.4 µM | 27.1 µM | 31.2 µM | 35.1 µM | 38.6 µM | 29.6 µM | 29 µM | 47.5 µM | 31.9 µM |
| O=C(O)CCSCc1ccccc1 | > 100 µM | > 100 µM | > 100 µM | > 100 µM | > 100 µM | > 100 µM | > 100 µM | > 100 µM | > 100 µM | > 100 µM | > 100 µM | > 100 µM | > 100 µM | > 100 µM | > 100 µM | > 100 µM | > 100 µM | > 100 µM |
| NC(Cc1ccc(N(CCCl)CCCl)cc1)C(=O)NC(CCC(=O)O)C(=O)O (configuration not stated) | > 100 µM | > 100 µM | > 100 µM | > 100 µM | > 100 µM | > 100 µM | > 100 µM | > 100 µM | > 100 µM | > 100 µM | > 100 µM | > 100 µM | > 100 µM | > 100 µM | > 100 µM | > 100 µM | > 100 µM | > 100 µM |
